How the values were obtained:
Assay in all cases: relative viability (nuclei count vs DMSO), 5 days (fraction); higher = more cells survive
BI-D1870 + Linsitinib = compound: CC(C)CCN1c2nc(Nc3cc(F)c(O)c(F)c3)ncc2N(C)C(=O)C1C [BI-D1870] + C[C@]1(O)C[C@@H](c2nc(-c3ccc4ccc(-c5ccccc5)nc4c3)c3c(N)nccn32)C1 [Linsitinib] (partner 1 µM)
Procedure, shortened: (§1)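 Each reported value is a median over duplicate plates. It expresses relative viability: treated-well nuclei count divided by vehicle-well nuclei count. Lung cancer cell lines in 1536-well plates were dosed by pin tool a day after seeding, alone with one drug or with a fixed anchor-drug dose plus five library-drug doses (not always all listed) in √10 steps, and nuclei were counted after 5 days.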

Zebularine + Bortezomib = compound: O=c1ncccn1[C@@H]1O[C@H](CO)[C@@H](O)[C@H]1O [Zebularine] + CC(C)C[C@H](NC(=O)[C@H](Cc1ccccc1)NC(=O)c1cnccn1)B(O)O [Bortezomib] (partner 0.002 µM)
Procedure, shortened: as §1

Zebularine + Foretinib = compound: O=c1ncccn1[C@@H]1O[C@H](CO)[C@@H](O)[C@H]1O [Zebularine] + COc1cc2c(Oc3ccc(NC(=O)C4(C(=O)Nc5ccc(F)cc5)CC4)cc3F)ccnc2cc1OCCCN1CCOCC1 [Foretinib] (partner 0.25 µM)
Procedure, shortened: as §1

Zebularine + OSI-027 = compound: O=c1ncccn1[C@@H]1O[C@H](CO)[C@@H](O)[C@H]1O [Zebularine] + COc1cccc2cc(-c3nc([C@H]4CC[C@H](C(=O)O)CC4)n4ncnc(N)c34)[nH]c12 [OSI-027] (partner 0.5 µM)
Procedure, shortened: as §1

Question: What does the source list for UMC-11?
Answer: relative viability (BI-D1870 + Linsitinib; first compound 0.04 µM): 1.06; relative viability (BI-D1870 + Linsitinib; first compound 0.1265 µM): 0.924; relative viability (BI-D1870 + Linsitinib; first compound 0.4 µM): 0.972; relative viability (BI-D1870 + Linsitinib; first compound 1.265 µM): 1.06; relative viability (BI-D1870 + Linsitinib; first compound 4 µM): 0.693; relative viability (Zebularine + Bortezomib; first compound 1 µM): 0.728; relative viability (Zebularine + Bortezomib; first compound 3.162 µM): 0.844; relative viability (Zebularine + Bortezomib; first compound 10 µM): 0.45; relative viability (Zebularine + Bortezomib; first compound 31.62 µM): 0.538; relative viability (Zebularine + Bortezomib; first compound 100 µM): 0.297; relative viability (Zebularine + Foretinib; first compound 1 µM): 1; relative viability (Zebularine + Foretinib; first compound 3.162 µM): 1.06; relative viability (Zebularine + Foretinib; first compound 10 µM): 0.626; relative viability (Zebularine + Foretinib; first compound 31.62 µM): 0.635; relative viability (Zebularine + Foretinib; first compound 100 µM): 0.357; relative viability (Zebularine + OSI-027; first compound 1 µM): 0.544; relative viability (Zebularine + OSI-027; first compound 3.162 µM): 0.478; relative viability (Zebularine + OSI-027; first compound 10 µM): 0.297; relative viability (Zebularine + OSI-027; first compound 31.62 µM): 0.473; relative viability (Zebularine + OSI-027; first compound 100 µM): 0.407

Source: the supplement of paper PMC10307832
